Results taken from patent US11787762B2, “Tetralin and tetrahydroquinoline compounds as inhibitors of HIF-2alpha” (ARCUS BIOSCIENCES, INC., priority 2020, dated 2023).

Biological target: T1, HIF-2α (Homo sapiens, UniProt Q99814)
T1 construct: host or cells: 786-O cells stably transduced with Cignal Lenti HIF Luc Reporter (only the reporter was introduced, not HIF-2α)
Experiment: HIF-2α luciferase reporter assay in HIF-Luc-786-O cells
Type: cell-based
Details: Table 3, 20 hours incubation
Description: Generation of HIF-2α Luciferase 786-O Cell Line:
Stable cell lines were generated by transducing 786-O cells (ATCC, CRL-1932) with Cignal Lenti HIF Luc Reporter lentivirus (CLS-007 L, Qiagen) according to the manufacturer's guidelines. In brief, 0.3×10^6 786-0 cells were transduced with lentivirus at a Multiplicity of Infection (MOI) of 25 for 24 hours. After transduction, cells were replenished with fresh RPMI 1640 Medium (Cat. No. 11875085, Thermo Fisher,) supplemented with 10% FBS (Cat. No. A3160502, Gibco), 2 mM GlutaMax (Cat. No. 35050-061, Invitrogen) and 100 units of penicillin and 100 μg of streptomycin/mL (Cat. No 15070063, Thermo Fisher) for another 24 hours. Antibiotic selection was performed in cell media containing 4 μg/mL of Puromycin. After 7 days of antibiotic selection, stable pools of surviving cells were expanded and used in a luciferase reporter assay.
HIF-2α Luciferase Reporter Assay:
On day one, 20 uL of HIF-Luc-786-0 cells in OptiMem (Cat. No. 31985088, Thermo Fisher) were seeded into each well of a 384 well white opaque plate (Corning 3570) and incubated at 37° C. and 5% CO2. Twenty microliters of 2× test compounds in OptiMem were added to cells after 4 hours of incubation. Final assay conditions comprised 20,000 cells per well in 1% DMSO with test compound concentrations ranging from 50 uM to 0 uM. After 20 hours incubation at 37° C. and 5% CO2, luciferase activity was determined using ONE-Glo Luciferase Assay Reagent (E6110, Promega) following the manufacture's recommended procedure. Briefly, 40 uL of ONE-Glo luciferase reagents were added to each well and luciferase signals were measured using an Envision 2102 Multilabel Reader. Percentage maximum activity in each test well was calculated based on DMSO (maximum activity) and no cell control wells (baseline activity). The IC50 values of the test compounds were determined from compound dose response curves fitted using a standard four parameter fit equation.

T1 sequence (Q99814 whole entry): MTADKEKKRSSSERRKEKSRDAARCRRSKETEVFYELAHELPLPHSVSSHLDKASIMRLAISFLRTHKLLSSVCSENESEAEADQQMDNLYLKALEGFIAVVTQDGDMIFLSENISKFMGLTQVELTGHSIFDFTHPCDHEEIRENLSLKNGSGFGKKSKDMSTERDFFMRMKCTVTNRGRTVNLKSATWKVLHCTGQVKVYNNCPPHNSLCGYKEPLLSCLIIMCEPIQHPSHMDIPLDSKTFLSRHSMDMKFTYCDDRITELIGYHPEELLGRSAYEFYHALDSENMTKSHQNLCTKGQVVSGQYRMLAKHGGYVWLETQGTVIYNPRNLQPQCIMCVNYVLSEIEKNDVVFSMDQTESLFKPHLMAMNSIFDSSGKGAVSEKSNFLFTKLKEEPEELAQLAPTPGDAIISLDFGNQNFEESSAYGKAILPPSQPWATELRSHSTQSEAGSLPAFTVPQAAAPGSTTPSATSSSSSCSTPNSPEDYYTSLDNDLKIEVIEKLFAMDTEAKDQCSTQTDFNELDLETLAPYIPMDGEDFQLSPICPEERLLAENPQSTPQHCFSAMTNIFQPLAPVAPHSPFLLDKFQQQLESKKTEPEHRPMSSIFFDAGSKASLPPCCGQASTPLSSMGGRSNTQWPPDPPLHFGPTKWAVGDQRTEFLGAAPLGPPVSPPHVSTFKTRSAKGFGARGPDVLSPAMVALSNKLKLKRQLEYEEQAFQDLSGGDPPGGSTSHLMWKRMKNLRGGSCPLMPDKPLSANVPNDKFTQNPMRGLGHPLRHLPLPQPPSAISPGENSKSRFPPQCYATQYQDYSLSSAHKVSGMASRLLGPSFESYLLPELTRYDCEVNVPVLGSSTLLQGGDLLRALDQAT

Structure (SMILES)	IC50
N#Cc1ccc(-c2ccc([C@H]3CC[C@H](F)c4cc(F)cc(C#N)c43)c3c2[C@H](O)C(F)(F)C3)c(N)c1 [Example 197, (5S,8R)-8-[(1S)-7-(2-amino-4-cyanophenyl)-2,2-difluoro-1-hydroxy-1,3-dihydroinden-4-yl]-3,5-difluoro-5,6,7,8-tetrahydronaphthalene-1-carbonitrile]	< 100 nM
N#Cc1cc(F)cc2c1[C@@H](c1ccc(Nc3ccccn3)c3c1CC(F)(F)[C@H]3O)CC[C@@H]2F [Example 200, (5S,8R)-8-[(1S)-2,2-difluoro-1-hydroxy-7-(pyridin-2-ylamino)-1,3-dihydroinden-4-yl]-3,5-difluoro-5,6,7,8-tetrahydronaphthalene-1-carbonitrile]	100 to 1000 nM
Cc1nc(C#N)ncc1-c1ccc([C@H]2C[C@H](F)[C@H](F)c3cc(F)cc(C#N)c32)c2c1[C@H](O)C(F)(F)C2 [Example 220, 5-[(3S)-7-[(1R,3S,4R)-8-cyano-3,4,6-trifluoro-1,2,3,4-tetrahydronaphthalen-1-yl]-2,2-difluoro-3-hydroxy-2,3-dihydro-1H-inden-4-yl]-4-methylpyrimidine-2-carbonitrile]	< 100 nM
CN(C)C(=O)c1ccc([C@H]2CC[C@H](F)c3cc(F)cc(C#N)c32)c2c1[C@H](O)C(F)(F)C2 [Example 224, (3S)-7-[(1R,4S)-8-cyano-4,6-difluoro-1,2,3,4-tetrahydronaphthalen-1-yl]-2,2-difluoro-3-hydroxy-N,N-dimethyl-1,3-dihydroindene-4-carboxamide]	100 to 1000 nM
Cc1nc(N)ccc1-c1ccc([C@H]2C[C@H](F)[C@H](F)c3cc(F)cc(C#N)c32)c2c1[C@H](O)C(F)(F)C2 [Example 216, (5R,6S,8R)-8-[(1S)-7-(6-amino-2-methylpyridin-3-yl)-2,2-difluoro-1-hydroxy-2,3-dihydro-1H-inden-4-yl]-3,5,6-trifluoro-5,6,7,8-tetrahydronaphthalene-1-carbonitrile]	< 100 nM
N#Cc1cc(F)cc2c1[C@@H](c1ccc(-c3cccc4ncsc34)c3c1CC(F)(F)[C@H]3O)CC[C@@H]2F [Example 189, (5S,8R)-8-[(1S)-7-(1,3-benzothiazol-7-yl)-2,2-difluoro-1-hydroxy-1,3-dihydroinden-4-yl]-3,5-difluoro-5,6,7,8-tetrahydronaphthalene-1-carbonitrile]	< 100 nM
Cc1nc2ccccn2c1-c1ccc([C@H]2CC[C@H](F)c3cc(F)cc(C#N)c32)c2c1[C@H](O)C(F)(F)C2 [Example 231, (5S,8R)-8-[(1S)-2,2-difluoro-1-hydroxy-7-(2-methylimidazo[1,2-a]pyridin-3-yl)-1,3-dihydroinden-4-yl]-3,5-difluoro-5,6,7,8-tetrahydronaphthalene-1-carbonitrile]	100 to 1000 nM
N#Cc1cc(F)cc2c1[C@@H](c1ccc(-c3c(N)cccc3F)c3c1CC(F)(F)[C@H]3O)CC[C@@H]2F [Example 196, (5S,8R)-8-[(1S)-7-(2-amino-6-fluorophenyl)-2,2-difluoro-1-hydroxy-1,3-dihydroinden-4-yl]-3,5-difluoro-5,6,7,8-tetrahydronaphthalene-1-carbonitrile]	< 100 nM
N#Cc1cc(F)cc2c1[C@@H](c1ccc(-c3cccnc3C#N)c3c1CC(F)(F)[C@H]3O)CC[C@@H]2F [Example 184, 3-[(3S)-7-[(1R,4S)-8-cyano-4,6-difluoro-1,2,3,4-tetrahydronaphthalen-1-yl]-2,2-difluoro-3-hydroxy-1,3-dihydroinden-4-yl]pyridine-2-carbonitrile]	< 100 nM
N#Cc1cc(F)cc2c1[C@@H](c1ccc(-c3cnc4ncccn34)c3c1CC(F)(F)[C@H]3O)CC[C@@H]2F [Example 233, (5S,8R)-8-[(1S)-2,2-difluoro-1-hydroxy-7-imidazo[1,2-a]pyrimidin-3-yl-1,3-dihydroinden-4-yl]-3,5-difluoro-5,6,7,8-tetrahydronaphthalene-1-carbonitrile]	100 to 1000 nM
Cc1nc(C)c(-c2ccc([C@H]3CC[C@H](F)c4cc(F)cc(C#N)c43)c3c2[C@H](O)C(F)(F)C3)s1 [Example 193, (5S,8R)-8-[(1S)-7-(2,4-dimethyl-1,3-thiazol-5-yl)-2,2-difluoro-1-hydroxy-1,3-dihydroinden-4-yl]-3,5-difluoro-5,6,7,8-tetrahydronaphthalene-1-carbonitrile]	< 100 nM
Cc1nc(N)cnc1-c1ccc([C@H]2CC[C@H](F)c3cc(F)cc(C#N)c32)c2c1[C@H](O)C(F)(F)C2 [Example 179, (5S,8R)-8-[(1S)-7-(5-amino-3-methylpyrazin-2-yl)-2,2-difluoro-1-hydroxy-1,3-dihydroinden-4-yl]-3,5-difluoro-5,6,7,8-tetrahydronaphthalene-1-carbonitrile]	< 100 nM
N#Cc1cc(F)cc2c1[C@@H](c1ccc(-c3cccc4ncoc34)c3c1CC(F)(F)[C@H]3O)CC[C@@H]2F [Example 228, (5S,8R)-8-[(1S)-7-(1,3-benzoxazol-7-yl)-2,2-difluoro-1-hydroxy-1,3-dihydroinden-4-yl]-3,5-difluoro-5,6,7,8-tetrahydronaphthalene-1-carbonitrile]	< 100 nM

Now from value to molecule:

IC50	Structure (SMILES)
< 100 nM	CS(=O)(=O)c1c(N)cc([C@H]2CC[C@H](F)c3cc(F)cc(C#N)c32)c2c1[C@H](O)[C@H](F)C2 [Example 212, (5S,8R)-8-[(1S,2R)-6-amino-2-fluoro-1-hydroxy-7-methylsulfonyl-2,3-dihydro-1H-inden-4-yl]-3,5-difluoro-5,6,7,8-tetrahydronaphthalene-1-carbonitrile]
< 100 nM	Cc1ccc([C@H]2CC[C@H](F)c3cc(F)cc(C#N)c32)c2c1[C@H](O)C(F)(F)C2 [Example 225, (5S,8R)-8-[(1S)-2,2-difluoro-1-hydroxy-7-methyl-1,3-dihydroinden-4-yl]-3,5-difluoro-5,6,7,8-tetrahydronaphthalene-1-carbonitrile]
100 to 1000 nM	Cn1cc(-c2ccc([C@H]3CC[C@H](F)c4cc(F)cc(C#N)c43)c3c2[C@H](O)C(F)(F)C3)cn1 [Example 150, (5S,8R)-8-[(1S)-2,2-difluoro-1-hydroxy-7-(1-methylpyrazol-4-yl)-1,3-dihydroinden-4-yl]-3,5-difluoro-5,6,7,8-tetrahydronaphthalene-1-carbonitrile]
< 100 nM	CS(=O)(=O)c1c(F)cc([C@H]2CC[C@H](F)c3cc(F)cc(C#N)c32)c2c1[C@H](O)[C@H](F)C2 [Example 211, (5S,8R)-8-[(1S,2R)-2,6-Difluoro-1-hydroxy-7-methylsulfonyl-2,3-dihydro-1H-inden-4-yl]-3,5-difluoro-5,6,7,8-tetrahydronaphthalene-1-carbonitrile]
100 to 1000 nM	Cc1ncc(-c2ccc([C@H]3CC[C@H](F)c4cc(F)cc(C#N)c43)c3c2[C@H](O)C(F)(F)C3)o1 [Example 148, (5S,8R)-8-[(1S)-2,2-difluoro-1-hydroxy-7-(2-methyl-1,3-oxazol-5-yl)-1,3-dihydroinden-4-yl]-3,5-difluoro-5,6,7,8-tetrahydronaphthalene-1-carbonitrile]
100 to 1000 nM	Cn1cnc(-c2ccc([C@H]3CC[C@H](F)c4cc(F)cc(C#N)c43)c3c2[C@H](O)C(F)(F)C3)n1 [Example 182, (5S,8R)-8-[(1S)-2,2-difluoro-1-hydroxy-7-(1-methyl-1,2,4-triazol-3-yl)-1,3-dihydroinden-4-yl]-3,5-difluoro-5,6,7,8-tetrahydronaphthalene-1-carbonitrile]
< 100 nM	N#Cc1cc(F)cc2c1[C@@H](c1cc(F)c(Cl)c3c1CC(F)(F)[C@H]3O)CC[C@@H]2F [Example 207, (5S,8R)-8-[(1S)-7-chloro-2,2,6-trifluoro-1-hydroxy-1,3-dihydroinden-4-yl]-3,5-difluoro-5,6,7,8-tetrahydronaphthalene-1-carbonitrile]
100 to 1000 nM	CS(=O)(=O)c1c(C#N)cc([C@H]2CC[C@H](F)c3cc(F)cc(C#N)c32)c2c1[C@H](O)[C@H](F)C2 [Example 214, (5S,8R)-8-[(1S,2R)-6-Cyano-2-fluoro-1-hydroxy-7-methylsulfonyl-2,3-dihydro-1H-inden-4-yl]-3,5-difluoro-5,6,7,8-tetrahydronaphthalene-1-carbonitrile]
< 100 nM	Cn1nccc1-c1c(F)cc([C@H]2CC[C@H](F)c3cc(F)cc(C#N)c32)c2c1[C@H](O)[C@H](F)C2 [Example 210, (5S,8R)-8-[(1S,2R)-2,6-difluoro-1-hydroxy-7-(2-methylpyrazol-3-yl)-2,3-dihydro-1H-inden-4-yl]-3,5-difluoro-5,6,7,8-tetrahydronaphthalene-1-carbonitrile]
100 to 1000 nM	Cn1ccnc1-c1ccc([C@H]2CC[C@H](F)c3cc(F)cc(C#N)c32)c2c1[C@H](O)C(F)(F)C2 [Example 238, (5S,8R)-8-[(1S)-2,2-difluoro-1-hydroxy-7-(1-methylimidazol-2-yl)-1,3-dihydroinden-4-yl]-3,5-difluoro-5,6,7,8-tetrahydronaphthalene-1-carbonitrile]
